From patent US20250108038A1 (priority 2023, published 2025) come the findings set out here.

For data set [1], the target named is BSEP (Homo sapiens, UniProt O95342). The data set is described as follows: Vesicular transport inhibition assay, BSEP (taurocholate). The method, then: (§1) Vesicular transport assays were performed with inside-out membrane vesicles prepared from cells overexpressing human ABC (efflux) transporters. The transporters were expressed by SOLVO Biotechnology in mammalian (HEK293) cells. The mammalian cells were stably transfected with the ABC transporter of interest. The assays were conducted according to the actual SOLVO VT assay protocols (PR-ASY-VT-General Protocol for Vesicular Transport Inhibition Assays).
Sequence of BSEP (O95342 whole entry): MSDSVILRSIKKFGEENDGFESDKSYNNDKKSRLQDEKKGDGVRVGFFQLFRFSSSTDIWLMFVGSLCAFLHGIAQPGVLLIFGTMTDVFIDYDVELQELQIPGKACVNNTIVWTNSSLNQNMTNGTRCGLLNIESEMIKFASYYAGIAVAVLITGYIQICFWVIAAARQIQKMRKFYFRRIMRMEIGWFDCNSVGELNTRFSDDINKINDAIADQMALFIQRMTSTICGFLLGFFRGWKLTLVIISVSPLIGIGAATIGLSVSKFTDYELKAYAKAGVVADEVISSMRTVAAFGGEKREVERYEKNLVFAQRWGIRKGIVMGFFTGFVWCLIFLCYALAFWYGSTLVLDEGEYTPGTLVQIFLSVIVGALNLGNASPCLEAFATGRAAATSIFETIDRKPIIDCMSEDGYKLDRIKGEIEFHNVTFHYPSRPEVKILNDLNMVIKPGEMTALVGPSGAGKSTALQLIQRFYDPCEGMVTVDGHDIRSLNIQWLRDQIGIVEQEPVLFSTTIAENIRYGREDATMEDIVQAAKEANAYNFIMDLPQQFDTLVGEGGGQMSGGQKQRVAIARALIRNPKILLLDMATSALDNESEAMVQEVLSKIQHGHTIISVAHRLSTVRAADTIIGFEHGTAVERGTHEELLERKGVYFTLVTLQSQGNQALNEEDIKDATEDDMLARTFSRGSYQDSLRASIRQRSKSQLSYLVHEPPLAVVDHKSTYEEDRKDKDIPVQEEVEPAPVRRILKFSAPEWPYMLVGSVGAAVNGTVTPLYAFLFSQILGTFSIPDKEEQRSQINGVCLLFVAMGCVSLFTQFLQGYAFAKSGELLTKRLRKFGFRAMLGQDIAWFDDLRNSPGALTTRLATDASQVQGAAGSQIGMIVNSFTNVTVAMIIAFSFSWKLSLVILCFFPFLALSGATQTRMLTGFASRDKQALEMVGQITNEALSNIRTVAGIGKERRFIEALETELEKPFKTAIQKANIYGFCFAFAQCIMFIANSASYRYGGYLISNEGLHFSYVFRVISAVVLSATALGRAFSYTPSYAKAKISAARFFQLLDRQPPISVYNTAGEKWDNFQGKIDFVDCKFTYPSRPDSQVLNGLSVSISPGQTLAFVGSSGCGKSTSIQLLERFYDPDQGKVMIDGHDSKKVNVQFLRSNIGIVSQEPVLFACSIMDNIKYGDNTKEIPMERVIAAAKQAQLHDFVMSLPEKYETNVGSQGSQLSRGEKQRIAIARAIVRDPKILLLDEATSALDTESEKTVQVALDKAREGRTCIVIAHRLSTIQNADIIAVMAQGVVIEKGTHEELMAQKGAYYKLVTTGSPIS
(§2) The membrane vesicle suspension was mixed with the ice-cold transport buffer, then the probe substrate solution was added. […] (for BCRP and MDR1). […] Reactions were quenched by the addition of 200 μL of ice-cold washing buffer and immediate filtration via glass fiber filters mounted to a 96-well plate (filter plate). The filters were washed (5×200 μL of ice-cold washing buffer), dried and the amount of substrate inside the filtered vesicles was determined by liquid scintillation counting.
(§3) Incubation with AMP provided background activity values for all data points.

In data set [2] the target is T1, BCRP (Homo sapiens, UniProt Q9UNQ0).
T1 sequence (Q9UNQ0 1-655): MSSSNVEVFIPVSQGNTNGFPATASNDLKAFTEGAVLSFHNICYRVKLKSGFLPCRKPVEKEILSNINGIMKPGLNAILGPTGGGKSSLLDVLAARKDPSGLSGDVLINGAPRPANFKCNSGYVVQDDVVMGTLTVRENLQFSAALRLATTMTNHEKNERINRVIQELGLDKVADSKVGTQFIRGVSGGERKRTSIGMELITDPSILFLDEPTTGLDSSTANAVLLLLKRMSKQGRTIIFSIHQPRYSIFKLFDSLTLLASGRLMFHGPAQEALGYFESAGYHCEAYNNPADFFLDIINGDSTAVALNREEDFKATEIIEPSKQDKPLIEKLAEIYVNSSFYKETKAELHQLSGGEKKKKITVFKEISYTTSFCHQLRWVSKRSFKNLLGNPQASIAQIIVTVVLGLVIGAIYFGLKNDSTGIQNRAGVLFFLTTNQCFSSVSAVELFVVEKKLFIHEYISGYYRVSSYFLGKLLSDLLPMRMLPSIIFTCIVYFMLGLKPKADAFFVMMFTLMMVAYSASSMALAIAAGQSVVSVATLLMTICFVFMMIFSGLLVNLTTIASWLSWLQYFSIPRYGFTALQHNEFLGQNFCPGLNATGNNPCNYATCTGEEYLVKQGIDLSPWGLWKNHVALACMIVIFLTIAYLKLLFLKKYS
The data set is described as follows: Vesicular transport inhibition assay, BCRP (estrone-3-sulfate). As to the method:
as §1, §2, §3

“Also recorded” adds a separate entry of the source.

Take `OC1(c2ccc(Cl)cc2)c2ccccc2C2=NCCN21` (stereo not drawn) [Compound A, 5-(4-chlorophenyl)-2,3-dihydroimidazo[1,2-b]isoindol-5-ol, reference compound]: the “maximum inhibition of BSEP-mediated taurocholate accumulation” value in data set [1] (2-concentration assay, up to 100 μM (Compound A up to 35 μM)) is “did not inhibit; also recorded: not an in vitro inhibitor”. Further, the Maximum % inhibition result in data set [1] (BSEP, inside-out membrane vesicles, TC (0.2 μM), NIO: No inhibition observed) is reported as “NIO”; in data set [2] (BCRP, inside-out membrane vesicles, E3S (1 μM), NIO: No inhibition observed), “NIO”. For the same molecule, the inhibition (commonly the percentage by which the read-out fell short of the control) at 35 μM in data set [1] (human) turned out to be 2%. Also, the results for the “Relative ATP-dependent transport” value in data set [2] (5.00 μM nominal) and in data set [2] (50.00 μM nominal) were 100.28 ± 5.84 % of control and 97.83 ± 3.82 % of control, respectively. Besides, the “maximum inhibition of BCRP-mediated E3S accumulation” value in data set [2] (2-concentration assay, up to 100 μM (Compound A up to 50 μM)) was “did not inhibit; also recorded: not an in vitro inhibitor”. In addition, in data set [2] (human), the inhibition at 5 μM came out at 0%. In data set [2] (human), this molecule gave an inhibition at 50 μM of 2%.
